We go through twelve compounds from patent US20240300945A1, “CLY SERIES COMPOUND, PREPARATION METHOD THEREFOR AND USE THEREOF IN PREPARATION OF DRUGS” (NANJING WELLBEST PHARMACEUTICAL CO., LTD, priority 2021, published 2024).

The nature of series [1]: Pharmacokinetic properties of rats (bioavailability). The format is in vivo. The note with it: rat, po; male SD rats; intravenous 1 mg/kg, intragastric 5 mg/kg; plasma LC/MS/MS. As for the experimental part: Male SD rats were randomly assigned to each group, 12 rats in each compound group, and then randomly divided into two groups. Six rats were administered intravenously (1 mg/kg), and blood was collected and plasma was separated respectively at 0.0833, 0.25, 0.5, 1, 2, 4, 6, 8, and 24 hours after administration. The other six rats were administered intragastrically (5 mg/kg), and blood was collected and plasma was separated respectively at 0.25, 0.5, 1, 2, 4, 6, 8, and 24 hours after administration. The concentration of each compound in plasma was determined by LC/MS/MS method, and the relevant pharmacokinetic parameters were calculated by using the software Phoenix WinNonlin 6.2.1, the bioavailability in rats was calculated, and the pharmacokinetic properties of each compound were evaluated.

Series [2] deals with rabbit ear acne model. As to the kind of experiment: Rabbit ear acne model: epidermal thickness, hair follicle area, sebaceous gland diameter. The format is in vivo, New Zealand rabbits. The note with it: rabbit right ear. The text has this: (§1) New Zealand rabbits were, according to weights, randomly divided into the model control group (applied cream matrix), positive treatment group (applied Differin on the skin), CLY-1 external treatment group (0.25% CLY-1 cream on the skin), CLY-2 external treatment group (0.25% CLY-2 cream on the skin), CLY-3 external treatment group (0.25% CLY-3 cream on the skin), CLY-4 external treatment group (0.25% CLY-4 cream on the skin) CLY-8 external treatment group (0.25% CLY-8 cream on the skin), CLY-9 external treatment group (0.25% CLY-9 cream on the skin), CLY-11 external treatment group (0.25% CLY-11 cream on the skin), CLY-19 external treatment group (0.25% CLY-19 cream on the skin), CLY-36 external treatment group (0.25% CLY-36 cream on the skin); CLY-1 intravenous injection group (1 mg/kg·d), CLY-2 intravenous injection group (1 mg/kg·d), CLY-3 intravenous injection group (1 mg/kg·d), CLY-4 intravenous injection group (1 mg/kg·d), CLY-8 intravenous injection group (1 mg/kg·d), CLY-9 intravenous injection group (1 mg/kg·d), CLY-11 intravenous injection group (1 mg/kg·d), CLY-19 intravenous injection group (1 mg/kg·d), and CLY-36 intravenous injection group (1 mg/kg·d), with 10 in each group. Took the inner side of the rabbit's right ear for depilation treatment as the observation area, and the inner side of the left ear of all rabbits as their own negative control, and applied 95% alcohol. The inner side of the right ear of the model group and the treatment group were both coated with 2% coal tar (Alfa Aesar China, which used 95% alcohol to prepare 2% coal tar solution), and evenly applied the sterile cotton swab to the opening of the ear duct on the inner side of the rabbit's ear within the range of about 2 cm×2 cm, once a day, 0.5 mL each time, and wiped the previous application site with warm water for 14 consecutive days to establish the acne micro-pigmentation model. Visually observed the changes of local skin, including ear thickness, hardness, roughness, and whether there was a black angle plug at the hair follicle mouth. 18 hours after the last application, the sample was sacrificed and skin was taken. The skin tissue was taken from the application site by using a 5 mm punch, fixed with 10% formaldehyde, embedded in paraffin, and stained with HE. The histopathological observation and analysis were carried out.
The histopathological changes were observed under the microscope, and the thickness of five different epidermises on a slice was measured with the Biomias99 image analysis system, and the average value was calculated; Detected the area of the two hair follicles and the diameter of the four sebaceous glands with the same position and the most complete structure in the four sections, calculated their average values, and then subtracted the data of the left and right external auditory canal of the rabbits in each group to obtain the difference in the thickness of the left and right ear epidermis, the difference in the area of the hair follicles and the difference in the diameter of the sebaceous glands.
(§2) SPSS16 software was used for statistical analysis. The paired t-test was used for the left and right self-contrast, and the t-test was used for the comparison between the groups, P<0.05 was statistically significant.

Series [3] relates to rabbit ear acne model. As to the kind of experiment: Rabbit ear acne model: macroscopic observation and histological grading. The format is in vivo, New Zealand rabbits. The note with it: for number of rabbits with acne histological grading 2+: Grade 2; for number of rabbits with acne histological grading 2+ / number of rabbits with acne histological grading — / number of rabbits with acne histological grading 1+ / number of rabbits with acne histological grading 3+: right ear, 10 per group; for number of rabbits with acne histological grading —: Level 0, without acne; for number of rabbits with acne histological grading 1+: Level 1; for number of rabbits with acne histological grading 3+: Level 3.
Description: (1) Preparation method of treatment cream: The excipient matrix components included methyl silicone oil (15%), stearic acid (6%), white vaseline (5%), liquid paraffin (5%), octadecanol (5%), glycerin (20%), alkyl aryl polyglycol ether (1%), fatty alcohol polyoxyethylene ether (1%), […] (1%), ethyl paraben (0.1%), distilled water (about 31-55%), and mixed with appropriate amount of CLY series compounds to form a mixed emulsion. The emulsion matrix used in this embodiment refers to the matrix component after the active ingredient was removed from the emulsion.
(2) Positive therapeutic drug: 0.1% adapalene gel (Trade name: Differin, produced by Laboratoires Galderma, France).
as §1
The histological grading criteria of the acne model: 3 grades according to histological grade. […] The tight keratin embolism in the hair follicles causes severe expansion of the hair follicles, obvious hyperplasia of the sebaceous duct epithelium, skin bulges and scars, and some sebaceous glands degenerate “3±”.
as §2

The mark [4] stands for this setting: external use (0.25% CLY cream; positive: Differin).
Setting [5] is: intravenous injection 1 mg/kg·d.

SMILES strings stand for the structures. Marks after values point to notes of the source that are not given here.

What is called bioavailability is dose-corrected exposure relative to a reference, in per cent. Low readings indicate poor availability, high ones good availability. Turning to `CN1CCC[C@@H](N(C(=O)c2ccc(-c3ccccc3)cc2)c2ncccc2Cl)C1` [CLY-32], the bioavailability in series [1] was determined as 58.6%.

For the compound `O=C(c1ccc(-n2nnc3cccnc32)cc1)N(c1ncccc1Cl)[C@@H]1CCCN1` [CLY-9], in series [2] (setting [4]), the epidermal thickness is 0.2389 ± 0.0189 mm, the hair follicle area is on record as 0.2834 ± 0.0981* mm^2 and the sebaceous gland diameter amounted to 0.0715 ± 0.0412 mm. In series [2] (setting [5]), the epidermal thickness is listed as 0.2126 ± 0.0167 mm, the hair follicle area is listed as 0.2327 ± 0.0865* mm^2 and the sebaceous gland diameter is reported as 0.0614 ± 0.0396 mm. In series [3] (setting [4]), the “number of rabbits with acne histological grading 2+” value is given as 1, the “number of rabbits with acne histological grading —” value was 5, the “number of rabbits with acne histological grading 1+” value came to 4 and the “number of rabbits with acne histological grading 3+” value is given as 0. Further, in series [3] (setting [5]), the “number of rabbits with acne histological grading 2+” value turned out to be 0, the “number of rabbits with acne histological grading —” value is listed as 7, the “number of rabbits with acne histological grading 1+” value is reported as 3 and the “number of rabbits with acne histological grading 3+” value came to 0.

Regarding `Nc1ccccc1-c1ccc(C(=O)N(c2ncccc2Cl)[C@@H]2CCNC2)cc1` [CLY-28], the bioavailability in series [1] worked out at 42.6%.

In series [1], `O=C(c1ccccc1Cl)N(c1ncccc1Cl)[C@@H]1CCCNC1` [CLY-37] returned a bioavailability of 56.5%.

For `CC(C)C(=O)OC(C)n1nnc(-c2c(-c3ccc(C(=O)N(c4ncccc4Cl)C4CCNC4)cc3)cnn2C)n1` [CLY-44, 1-(5-(4-(4-((3-chloropyridin-2-yl) (((R)-pyrrolidin-3-yl)carbamoyl)phenyl)-1-methyl-1H-pyrazol-5-yl)-2H-tetrazol-2-yl)ethyl isobutyrate], the bioavailability in series [1] amounted to 50.6%.

In series [1], `Cc1ccccc1-c1ccc(C(=O)N(c2ncccc2Cl)[C@@H]2CCNC2)cc1` [CLY-30] displayed a bioavailability of 46.2%.

For the compound `CCN1CCC[C@@H](N(C(=O)c2ccc(-c3ccc(Cl)cc3)cc2)c2ncccc2Cl)C1` [CLY-35], in series [1], the bioavailability was determined as 62.2%.

Turning to `COc1ccc(-c2ccc3cc(C(=O)O)ccc3c2)cc1C12CC3CC(CC(C3)C1)C2` [Positive treatment group, adapalene, reference compound], in series [2] (setting [4]), the epidermal thickness amounted to 0.2389 ± 0.0176 mm, the hair follicle area was 0.2789 ± 0.0926* mm^2 and the sebaceous gland diameter is reported as 0.0723 ± 0.0387 mm. Besides, in series [3] (setting [4]), the “number of rabbits with acne histological grading 2+” value is 3, the “number of rabbits with acne histological grading —” value worked out at 5, the “number of rabbits with acne histological grading 1+” value came to 2 and the “number of rabbits with acne histological grading 3+” value was determined as 0. Moreover, in series [3] (after 14 days of coal tar, external treatment), the “macroscopic observation of right ear” value is “slightly red, with a little desquamation and a small amount of acne”.

`COC1CCC[C@@H](N(C(=O)c2cccc(-c3nnn[nH]3)c2)c2ncccc2Cl)C1` (some centres unmarked) [CLY-17]: in series [1], the bioavailability was 52.5%.

For `O=C(c1ccccc1-c1nnn[nH]1)N(c1ncccc1Cl)[C@@H]1CCCNC1` [CLY-21], the bioavailability in series [1] is 49.6%.

Compound `O=C(c1ccc(-c2cccc(-c3nnn[nH]3)c2)cc1)N(c1ncccc1Cl)[C@@H]1CCNC1` [CLY-18] returned a bioavailability in series [1] of 46.9%.

For `O=C(c1ccc(-c2ccc(Cl)cc2)cc1)N(c1ncccc1Cl)[C@@H]1CCCNC1` [CLY-26], the bioavailability in series [1] is 48.5%.
